Legend:
Assay in all cases: relative viability (nuclei count vs DMSO), 5 days (fraction); higher = more cells survive
201T = system: 201T
Outline: (§1)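 Lung cancer cell lines were pin-tool dosed in 1536-well plates on the day after seeding, with either a lone drug or a fixed anchor-drug dose plus five library-drug doses (not always all listed) in √10 steps. Nuclei were counted on 4× images after 5 days. Relative viability is the ratio of treated-well to vehicle-well nuclei counts, with each value a median of duplicate plates.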

A-427 = system: A-427
Outline: as §1

BEN = system: BEN
Outline: as §1

COR-L23 = system: COR-L23
Outline: as §1

EKVX = system: EKVX
Outline: as §1

HARA = system: HARA
Outline: as §1

HCC-15 = system: HCC-15
Outline: as §1

HCC-44 = system: HCC-44
Outline: as §1

HCC-827 = system: HCC-827
Outline: as §1

NCI-H1437 = system: NCI-H1437
Outline: as §1

NCI-H1650 = system: NCI-H1650
Outline: as §1

NCI-H1666 = system: NCI-H1666
Outline: as §1

NCI-H1792 = system: NCI-H1792
Outline: as §1

NCI-H1975 = system: NCI-H1975
Outline: as §1

NCI-H23 = system: NCI-H23
Outline: as §1

NCI-H358 = system: NCI-H358
Outline: as §1

NCI-H596 = system: NCI-H596
Outline: as §1

NCI-H650 = system: NCI-H650
Outline: as §1

NCI-H838 = system: NCI-H838
Outline: as §1

SK-MES-1 = system: SK-MES-1
Outline: as §1

COc1nc(C)cnc1NS(=O)(=O)c1cccnc1-c1ccc(-c2nnco2)cc1 [Zibotentan] + CS(=O)(=O)CCNCc1ccc(-c2ccc3ncnc(Nc4ccc(OCc5cccc(F)c5)c(Cl)c4)c3c2)o1 [Lapatinib] (partner 2 µM)
relative viability (201T; first compound 0.08 µM): 1.03 | relative viability (201T; first compound 0.253 µM): 0.977 | relative viability (201T; first compound 0.8 µM): 1.11 | relative viability (201T; first compound 2.53 µM): 1.02 | relative viability (A-427; first compound 0.08 µM): 1.08 | relative viability (A-427; first compound 0.253 µM): 1.06 | relative viability (A-427; first compound 0.8 µM): 1.05 | relative viability (A-427; first compound 2.53 µM): 0.984 | relative viability (BEN; first compound 0.08 µM): 0.762 | relative viability (BEN; first compound 0.253 µM): 0.721 | relative viability (BEN; first compound 0.8 µM): 0.68 | relative viability (BEN; first compound 2.53 µM): 0.605 | relative viability (COR-L23; first compound 0.08 µM): 1.21 | relative viability (COR-L23; first compound 0.253 µM): 0.849 | relative viability (COR-L23; first compound 0.8 µM): 0.922 | relative viability (COR-L23; first compound 2.53 µM): 0.798 | relative viability (EKVX; first compound 0.08 µM): 0.184 | relative viability (EKVX; first compound 0.253 µM): 0.216 | relative viability (EKVX; first compound 0.8 µM): 0.194 | relative viability (EKVX; first compound 2.53 µM): 0.198 | relative viability (HARA; first compound 0.08 µM): 0.734 | relative viability (HARA; first compound 0.253 µM): 0.813 | relative viability (HARA; first compound 0.8 µM): 0.742 | relative viability (HARA; first compound 2.53 µM): 0.837 | relative viability (HCC-15; first compound 0.08 µM): 0.954 | relative viability (HCC-15; first compound 0.253 µM): 0.858 | relative viability (HCC-15; first compound 0.8 µM): 0.951 | relative viability (HCC-15; first compound 2.53 µM): 0.828 | relative viability (HCC-44; first compound 0.08 µM): 1.02 | relative viability (HCC-44; first compound 0.253 µM): 1.01 | relative viability (HCC-44; first compound 0.8 µM): 1.08 | relative viability (HCC-44; first compound 2.53 µM): 1.04 | relative viability (HCC-827; first compound 0.08 µM): 0.157 | relative viability (HCC-827; first compound 0.253 µM): 0.191 | relative viability (HCC-827; first compound 0.8 µM): 0.214 | relative viability (HCC-827; first compound 2.53 µM): 0.223 | relative viability (NCI-H1437; first compound 0.08 µM): 0.73 | relative viability (NCI-H1437; first compound 0.253 µM): 0.557 | relative viability (NCI-H1437; first compound 0.8 µM): 0.804 | relative viability (NCI-H1437; first compound 2.53 µM): 0.827 | relative viability (NCI-H1650; first compound 0.08 µM): 0.732 | relative viability (NCI-H1650; first compound 0.8 µM): 0.781 | relative viability (NCI-H1650; first compound 2.53 µM): 0.813 | relative viability (NCI-H1666; first compound 0.08 µM): 0.63 | relative viability (NCI-H1666; first compound 0.253 µM): 0.435 | relative viability (NCI-H1666; first compound 0.8 µM): 0.495 | relative viability (NCI-H1666; first compound 2.53 µM): 0.688 | relative viability (NCI-H1792; first compound 0.08 µM): 1.01 | relative viability (NCI-H1792; first compound 0.253 µM): 0.896 | relative viability (NCI-H1792; first compound 0.8 µM): 0.816 | relative viability (NCI-H1792; first compound 2.53 µM): 0.848 | relative viability (NCI-H1975; first compound 0.08 µM): 0.837 | relative viability (NCI-H1975; first compound 0.253 µM): 0.8 | relative viability (NCI-H1975; first compound 0.8 µM): 0.781 | relative viability (NCI-H1975; first compound 2.53 µM): 0.884 | relative viability (NCI-H23; first compound 0.08 µM): 1.22 | relative viability (NCI-H23; first compound 0.253 µM): 0.987 | relative viability (NCI-H23; first compound 0.8 µM): 1.19 | relative viability (NCI-H23; first compound 2.53 µM): 1.26 | relative viability (NCI-H358; first compound 0.08 µM): 0.453 | relative viability (NCI-H358; first compound 0.8 µM): 0.469 | relative viability (NCI-H358; first compound 2.53 µM): 0.503 | relative viability (NCI-H596; first compound 0.08 µM): 1.03 | relative viability (NCI-H596; first compound 0.253 µM): 1.12 | relative viability (NCI-H596; first compound 0.8 µM): 1.08 | relative viability (NCI-H596; first compound 2.53 µM): 1.08 | relative viability (NCI-H650; first compound 0.08 µM): 0.974 | relative viability (NCI-H650; first compound 0.253 µM): 0.655 | relative viability (NCI-H650; first compound 0.8 µM): 1 | relative viability (NCI-H650; first compound 2.53 µM): 0.904 | relative viability (NCI-H838; first compound 0.08 µM): 0.938 | relative viability (NCI-H838; first compound 0.253 µM): 0.838 | relative viability (NCI-H838; first compound 0.8 µM): 0.922 | relative viability (NCI-H838; first compound 2.53 µM): 1.06 | relative viability (SK-MES-1; first compound 0.08 µM): 0.505 | relative viability (SK-MES-1; first compound 0.253 µM): 0.453 | relative viability (SK-MES-1; first compound 0.8 µM): 0.498 | relative viability (SK-MES-1; first compound 2.53 µM): 0.509

From the supplement of paper PMC10307832
